Data from ChEMBL document CHEMBL3751815, “Sulfonamides incorporating heteropolycyclic scaffolds show potent inhibitory action against carbonic anhydrase isoforms I, II, IX and XII” (Bioorg Med Chem, 2016).

Target: Carbonic anhydrase 9 (Homo sapiens, UniProt Q16790)
Experiment: Inhibition of recombinant human carbonic anhydrase 9 preincubated for 15 mins by stopped-flow CO2 hydration assay

SMILES	Ki [µM]
Cc1ccc2c(c1)NCc1cn(-c3ccc(S(N)(=O)=O)cc3)nc1-2	0.0077
CN(CC(=O)O)c1ccc2c(c1)-c1cccnc1SC2	0.0678
COc1ccc2c(c1)SCc1ccc(N(C)CC(=O)O)cc1-2	0.0408
Cc1ccc2c(n1)SCc1ccc(N(C)CC(=O)O)cc1-2	0.0927
COc1ccc2c(c1)SCc1ccc(NCC(=O)O)cc1-2	0.0541

Now from value to compound:

Ki [µM]	SMILES
0.0074	COc1ccc2c(c1)SCc1cn(-c3ccc(S(N)(=O)=O)cc3)nc1-2
0.0087	NS(=O)(=O)c1ccc(Nc2ncc3c(n2)-c2ccc(Cl)cc2SC3)cc1
0.0061	NS(=O)(=O)c1ccc(-n2cc3c(n2)-c2ccc(Cl)cc2SC3)cc1
0.0225	COc1ccc2c(c1)SCc1cnc(Nc3ccc(S(N)(=O)=O)cc3)nc1-2
0.007	NS(=O)(=O)c1ccc(Nc2ncc3c(n2)-c2ccccc2SC3)cc1
0.0063	NS(=O)(=O)c1ccc(-n2cc3c(n2)-c2ccccc2NC3)cc1
0.0276	NS(=O)(=O)c1ccc(Nc2ncc3c(n2)-c2cccnc2SC3)cc1
